Measurements reported in patent US6022885A, “Pyrrolidine and thiazole derivatives with antibacterial and . metallo-.beta-lactamase inhibitory properties” (SmithKline Beecham p.l.c., priority 1995, dated 2000).
Like-named read-outs stand apart in the source and are kept apart here.

Key:
[1] = target: B. fragilis CfiA metallo-β-lactamase (Bacteroides fragilis, UniProt P25910); assay: I50 screen, nitrocefin reporter substrate; assay type: biochemical; conditions: 25 mM PIPES pH 7, 37° C., nitrocefin 91 μM, 5 minute preincubation, Zn^2+ 100 μM
Protocol: (§1) The inhibitory activity of the compounds of the invention was measured in 25 mM PIPES pH 7 buffer at 10 concentrations (1000, 333, 111, 37, 12.3, 4.1, 1.4 0.46, 0.15 and 0.05 μM) at 37° C. using nitrocefin (91 μM, final concentration) as the reporter substrate. The assays were performed with a 5 minute preincubation of enzyme and inhibitor and were conducted in the presence of added zinc sulphate (Zn^2+ 100 μM, final concentration). The methodology is described in detail in the following references: Payne et al (1991), J. Antimicrob. Chemother., 28:255; Payne et al (1994), Antimicrob. Agents and Chemother., 38:767.

[2] = target: T1, Bacillus cereus II metallo-β-lactamase (Bacillus cereus, UniProt P04190); assay: I50 screen, nitrocefin reporter substrate; assay type: biochemical; conditions: 25 mM PIPES pH 7, 37° C., nitrocefin 91 μM, 5 minute preincubation, Zn^2+ 100 μM
T1 construct: nitrocefin assay with added zinc
Protocol: as §1

[3] = target: T2, Xanthomonas maltophilia L-1 metallo-β-lactamase (Stenotrophomonas maltophilia, UniProt P52700); assay: I50 screen, nitrocefin reporter substrate; assay type: biochemical; conditions: 25 mM PIPES pH 7, 37° C., nitrocefin 91 μM, 5 minute preincubation, Zn^2+ 100 μM
T2 construct: nitrocefin assay with added zinc
Protocol: as §1

[4] = test system: B. fragilis 460; assay: Antibacterial activity (MIC) alone and in combination with carbapenem antibiotics, B. fragilis 460; assay type: cell-based, Bacteroides fragilis
Source text: (§2) Antibacterial activity of compounds of the invention in combination with carbapenem antibiotics against strains of Bacteroides fragllis which produce metallo-β-lactamase:
(§3) [MIC =minimum inhibitory concentration (μg/ml)]

[5] = test system: B. fragilis 262; assay: Antibacterial activity (MIC) alone and in combination with carbapenem antibiotics, B. fragilis 262; assay type: cell-based, Bacteroides fragilis
Source text: as §2, §3

[6] = read-out: I50 values against B. fragilis CfiA metallo-β-lactamase
[7] = I50 values against B. fragilis CfiA metallo-β-lactamase
[8] = Bacteroides fragilis, alone, B. fragilis 460, CfiA, read-out: MIC alone
[9] = Bacteroides fragilis, alone, B. fragilis 262, CfiA, read-out: MIC alone

B. fragilis CfiA metallo-β-lactamase, sequence (P25910 19-249): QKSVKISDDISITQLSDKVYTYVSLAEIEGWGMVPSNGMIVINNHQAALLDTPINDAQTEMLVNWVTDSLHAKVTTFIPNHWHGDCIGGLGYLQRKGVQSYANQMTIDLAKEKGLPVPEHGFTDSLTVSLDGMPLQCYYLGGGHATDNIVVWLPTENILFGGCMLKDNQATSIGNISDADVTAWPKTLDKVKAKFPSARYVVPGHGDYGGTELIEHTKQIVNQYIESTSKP
T2 sequence (P52700 34-290): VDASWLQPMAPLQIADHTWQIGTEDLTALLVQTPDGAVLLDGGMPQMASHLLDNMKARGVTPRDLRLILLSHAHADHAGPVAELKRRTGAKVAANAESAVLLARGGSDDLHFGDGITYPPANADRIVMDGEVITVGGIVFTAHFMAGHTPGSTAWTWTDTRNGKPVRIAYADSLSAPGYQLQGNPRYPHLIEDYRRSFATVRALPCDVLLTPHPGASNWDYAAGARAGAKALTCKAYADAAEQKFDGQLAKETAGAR
T1 sequence (P04190 31-257): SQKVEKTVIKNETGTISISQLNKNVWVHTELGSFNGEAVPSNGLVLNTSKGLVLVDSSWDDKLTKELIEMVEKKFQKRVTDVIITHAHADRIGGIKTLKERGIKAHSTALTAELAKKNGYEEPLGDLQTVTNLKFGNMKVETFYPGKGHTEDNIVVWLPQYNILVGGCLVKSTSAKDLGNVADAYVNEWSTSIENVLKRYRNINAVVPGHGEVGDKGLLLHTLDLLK

For O=C(O)[C@@H]1CCCN1C(=O)C(CS)Cc1ccccc1 (stereo partly drawn) [Example 25, N-[2'(RS)-benzyl-3'-mercaptopropionyl]-L-proline], the IC50 [1, 6] was less than 500 µM.

With CC1(C)SCN(C(=O)C(CS)Cc2ccccc2)[C@@H]1C(=O)O (stereo partly drawn) [Example 12, 3-[2'(RS)-benzyl-3'-mercaptopropionyl]-4(R)-carboxy-5,5-dimethylthiazolidine] the IC50 [1, 6] was less than 500 µM.

In the case of O=C(O)[C@H]1CSCN1C(=O)C(CS)Cc1ccccc1 (single isomer, unassigned) [Example 31, 3-[2'(S or R)-benzyl-3'-mercaptopropionyl]-4(S)-carboxythiazolidine], the IC50 [1, 6] is reported as less than 500 µM.

In the case of CC1(C)SCN(C(=O)CCS)[C@H]1C(=O)O [Example 8, 3-[3'-Mercaptopropionyl]-4(S)-carboxy-5,5-dimethylthiazolidine], the IC50 [1, 6] is reported as less than 500 µM.

CC(CS)C(=O)N1CCC[C@@H]1C(=O)O (stereo partly drawn) [Example 4, N-[3'-Mercapto-2'(RS)-methylpropionyl]-D-proline] was tested, and the IC50 [1, 7] was less than 500 µM.

For CC(CS)C(=O)N1CSC(C)(C)C1C(=O)O [Example 21, 3-[3'-Mercapto-2'(R)-methylpropionyl]-4(S)-carboxy-5,5-dimethylthiazolidine], the “activity against Bacillus cereus II metallo-β-lactamase” value [2] was “weak but significant activity” and the “activity against Xanthomonas maltophilia L-1 metallo-β-lactamase” value [3] was “weak but significant activity”.

With CC1(C)[C@H](C(=O)O)N(C(=O)[C@@H](CS)Cc2ccccc2)C[S+]1[O-] (single isomer, unassigned) [Example 27] the “activity against Bacillus cereus II metallo-β-lactamase” value [2] was “weak but significant activity” and the “activity against Xanthomonas maltophilia L-1 metallo-β-lactamase” value [3] was “weak but significant activity”.

Compound O=C(O)[C@H]1CCCN1C(=O)C(CS)Cc1ccccc1 (stereo partly drawn) [Example 16, N-[2'(PS)-benzyl-3'-mercaptopropionyl]-D-proline] has an IC50 [1, 6] of less than 500 µM.

CC1(C)SCN(C(=O)[C@H](CS)Cc2ccccc2)[C@@H]1C(=O)O [Example 29, 3-[2'(R)-benzyl-3'-mercaptopropionyl]-4(R)-carboxy-5,5-dimethylthiazolidine] showed an IC50 [1, 6] of less than 500 µM.

C[C@@H](O)[C@H]1C(=O)N2C(C(=O)O)=C(SCCN=CN)C[C@H]12 [Imipenem] gave an MIC [4, 8] of 16 µg/mL and an MIC [5, 9] of 4 µg/mL.

With O=C(O)[C@H]1CSCN1C(=O)C(CS)Cc1ccccc1 (single isomer, unassigned) [Example 30, 3-[2'(R or S)-benzyl-3'-mercaptopropionyl]-4(S)-carboxythiazolidine] the IC50 [1, 6] was less than 500 µM.

In the case of O=C(O)[C@H]1CSCN1C(=O)C(CS)CCCc1ccccc1 (stereo partly drawn) [Example 33, 3-[2'(RS)-mercaptomethyl-5'-phenylpentanoyl]-4(S)-carboxythiazolidine], the IC50 [1, 6] is reported as less than 500 µM.

Compound CC1(C)SCN(C(=O)[C@@H](CS)Cc2ccccc2)[C@H]1C(=O)O [Example 20, 3-[2'(S)-benzyl-3'-mercaptopropionyl]-4(S)-carboxy-5,5-dimethylthiazolidine] has an IC50 [1, 6] of less than 1 µM, an MIC [4, 8] greater than 512 µg/mL and an MIC [5, 9] greater than 512 µg/mL.

For O=C(O)[C@H]1CSCN1C(=O)C(CS)Cc1ccccc1 (stereo partly drawn) [Example 18, 3-[2'(RS)-benzyl-3'-mercaptopropionyl]-4(S)-carboxythiazolidine], the IC50 [1, 6] was less than 500 µM.

In the case of CC(CS)C(=O)N1CSC(C)(C)C1C(=O)O [Example 23, 3-[Mercapto-2'(S)-methylpropionyl]-4(R)-carboxy-5,5-dimethylthiazolidine], the IC50 [1, 6] is reported as less than 500 µM.

CC(CS)C(=O)N1CSC(C)(C)[C@@H]1C(=O)O (stereo partly drawn) [Example 14, 3-[3'-Mercapto-2'(S)-methylpropionyl]-4(S)-carboxy-5,5-dimethylthiazolidine] was tested, and the IC50 [1, 6] was less than 500 µM.

C[C@H](CS)C(=O)N1CCC[C@@H]1C(=O)O [Example 6, N-(3'-mercapto-2'(S)-methylpropionyl)-D-proline] gave an IC50 [1, 7] of less than 500 µM.

In the case of CC1(C)SCN(C(=O)C(CS)Cc2ccccc2)C1C(=O)O [Example 19, 3-[2'(R)-benzyl-3'-mercaptopropionyl]-4(S)-carboxy-5,5-dimethylthiazolidine], the “activity against Bacillus cereus II metallo-β-lactamase” value [2] is reported as “weak but significant activity” and the “activity against Xanthomonas maltophilia L-1 metallo-β-lactamase” value [3] is reported as “weak but significant activity”.

Compound C[C@@H](O)[C@H]1C(=O)N2C(C(=O)O)=C(S[C@@H]3CN[C@H](C(=O)N(C)C)C3)[C@H](C)[C@H]12 [Meropenem] has an MIC ([4]; Bacteroides fragilis, 460, read-out: MIC alone) of 128 µg/mL and an MIC ([5]; Bacteroides fragilis, 262, read-out: MIC alone) of 128 µg/mL.

With CC1(C)SCN(C(=O)C(CS)Cc2ccccc2)[C@H]1C(=O)O (stereo partly drawn) [Example 2, 3-[2'(RS)-benzyl-3'-mereaptopropionyl]-4(S)-carboxy-5,5-dimethylthiazolidine] the IC50 [1, 6] was less than 1 µM.

In the case of CC1(C)SCN(C(=O)[C@@H](CS)Cc2ccccc2)[C@@H]1C(=O)O [Example 28, 3-[2'(S)-benzyl-3'-mercaptopropionyl]-4(R)-carboxy-5,5-dimethylthiazolidine], the IC50 [1, 6] is reported as less than 500 µM.

With CC1(C)SCN(C(=O)C(CS)CCc2ccccc2)[C@H]1C(=O)O (stereo partly drawn) [Example 32, 3-[2'(RS)-mercaptomethyl-4'-phenylbutanoyl]-4(S)-carboxy-5,5-dimethylthiazolidine] the IC50 [1, 6] was less than 500 µM.

Work on CC1(C)[C@H](C(=O)O)N(C(=O)[C@@H](CS)Cc2ccccc2)C[S+]1[O-] (single isomer, unassigned) [Example 26] yielded an IC50 [1, 6] of less than 1 µM.

For C[C@H](CS)C(=O)N1CCC[C@H]1C(=O)O [captopril, N-(3'-mercapto-2'(S)-methylpropionyl)-L-proline, reference compound], the “activity against Bacillus cereus II metallo-β-lactamase” value [2] was “weak but significant activity” and the “activity against Xanthomonas maltophilia L-1 metallo-β-lactamase” value [3] was “weak but significant activity”.
